According to patent US3997557A, “Substituted N-aminoalkylpyrroles” (American Hoechst Corporation, priority 1974, dated 1976):
Counter-ions that a name gives are not always drawn.

Tests used:
[1] = tested on: carrageenin-induced rat paw edema; experiment: Carrageenin-induced rat paw edema antiinflammatory assay; assay type: in vivo; conditions: 200 mg/kg of body weight
Description: The compounds of this invention are useful as antiinflammatory agents because of their ability to suppress inflammation in mammals. […] Exp. Biol. Med. III, 544 (1962)].

isolated rabbit atrium = experiment: Isolated rabbit atrium, increase in functional refractory period (antiarrhythmic); conditions: Oryctolagus cuniculus; for activation at 10 µM: 10^-5 molar; for activation at 20 µM: 2 × 10^-5 molar; for activation at 1 µM: 10^-6 molar
Description: The compounds of the invention are useful as antiarrhythmic agents because of their ability to alleviate cardiac arrhythmias. […] 198] wherein the compounds effect an increase in the functional refractory period. Compounds are dissolved in Krebs-Henseleit solution, and the percent change in the functional refractory period is monitored with an oscilloscope. […] Similarly at a concentration of 10^-^6 molar 1-(3-dimethylaminopropyl)-2-(p-bromophenyl)-4,5,6,7-tetrahydroindole hydrochloride and 1-(2-methylaminoethyl)-2-phenyl-1,4,5,6,7,8-hexahydrocyclohepta[b]pyrrole hydrochloride each effect a 150% increase in the functional refractory period.

central nervous system = experiment: Mouse observation procedure of S. Irwin, central nervous system depressant effects (tranquilizer); assay type: in vivo; conditions: male COBS mice, behavior and reflex depression, muscle relaxation, read-out: minimum effective dose (MED)/Kilogram of body weight
Description: The compounds of the invention are useful as tranquilizers because of their depressant effects on the central nervous system. The depressant effects on the central nervous system were evaluated according to the mouse observation procedure of S. Irwin, Psychopharmacologia, 13, 222 (1968). Male COBS mice are dosed with the drug, and its effects on behavior and reflex depression together with muscle relaxation determined by the degree of deviation from control scores, with activity expressed in terms of minimum effective dose (MED). The effectiveness of compounds of the invention as tranquilizers is illustrated in Table I below.

[2] = tested on: spontaneous hypertensive rat; experiment: Lowering of blood pressure in the spontaneous hypertensive rat, indirect tail cuff method; assay type: in vivo; conditions: 100 mg/kg of body weight
Description: The compounds of this invention are also useful as antihypertensive agents because of their ability to lower blood pressure in mammals. […] 135. For example, at a dose of 100 mg/kg of body weight, the compounds shown in Table III below effect the corresponding decrease in systolic blood pressure.

Compound: CCN(CC)CCCn1c(-c2ccccc2)cc2c1CCCCC2.Cl [Example 41, 1-(3-diethylaminopropyl)-2-phenyl-1,4,5,6,7,8-hexahydrocyclohepta[b]pyrrole hydrochloride]
- inhibition in vivo at 200 mg/kg [1]: 50%
- activation at 10 µM (isolated rabbit atrium): 264%
- minimal effective dose (central nervous system): 50 mg/kg
- decrease in systolic blood pressure [2]: 49 mm Hg

Compound: CN(C)CCCn1c(-c2ccccc2)cc2c1CCCCC2.Cl [Example 40, 1-(3-dimethylaminopropyl)-2-phenyl-1,4,5,6,7,8-hexahydrocyclohepta[b]pyrrole hydrochloride]
- activation at 10 µM (isolated rabbit atrium): 275%
- minimal effective dose (central nervous system): 25 mg/kg
- decrease in systolic blood pressure [2]: 50 mm Hg

Compound: CN(C)CCn1c(-c2ccccc2)cc2c1CCCC2 [Example 1, 1-(2-dimethylaminoethyl)-2-phenyl-4,5,6,7-tetrahydroindole hydrochloride]
- inhibition in vivo at 200 mg/kg [1]: 47%
- activation at 20 µM (isolated rabbit atrium): 25%

Compound: CNCCCn1c(-c2ccccc2)cc2c1CCCCC2 [Example 39, 1-(3-methylaminopropyl)-2-phenyl-1,4,5,6,7,8-hexahydrocyclohepta[b]pyrrole . HCl]
- activation at 10 µM (isolated rabbit atrium): 214%
- minimal effective dose (central nervous system): 50 mg/kg
- decrease in systolic blood pressure [2]: 42 mm Hg

Compound: CCN(CC)CCCn1c(-c2ccccc2)cc2c1CCc1ccccc1-2 [Example 32, hydrochloride]
- inhibition in vivo at 200 mg/kg [1]: 72%
- decrease in systolic blood pressure [2]: 40 mm Hg

Compound: COc1ccc(-c2cc3c(n2CCCN(C)C)CCCC3)cc1.Cl [Example 11, 1-(3-dimethylaminopropyl)-2-(p-methoxyphenyl)-4,5,6,7-tetrahydroindole hydrochloride]
- inhibition in vivo at 200 mg/kg [1]: 44%
- activation at 10 µM (isolated rabbit atrium): 300%
- minimal effective dose (central nervous system): 50 mg/kg

Compound: CN(C)CCCn1c(-c2ccccc2)cc2c1CCCCCC2.Cl [Example 56, 1-(3-dimethylaminopropyl)-2-phenyl-4,5,6,7,8,9-hexahydrocycloocta[b]pyrrole hydrochloride]
- decrease in systolic blood pressure [2]: 50 mm Hg

Compound: CCN(CC)CCn1c(-c2ccccc2)cc2c1CCC(C(C)(C)C)C2.Cl (stereo not drawn) [Example 25, 1-(2-diethylaminoethyl)-2-phenyl-5-(t-butyl)-4,5,6,7-tetrahydroindole hydrochloride]
- minimal effective dose (central nervous system): 20 mg/kg
- decrease in systolic blood pressure [2]: 30 mm Hg

Compound: CCN(CC)CCn1c(-c2ccccc2)cc2c1CCC(C)C2 (stereo not drawn) [Example 24, 1-(2-diethylaminoethyl)-2-phenyl-5-methyl-4,5,6,7-tetrahydroindole hydrochloride]
- activation at 10 µM (isolated rabbit atrium): 208%

Compound: CN(C)CCCn1c(-c2ccc(F)cc2)cc2c1CCCCCC2 [Example 60, 1-(3-dimethylaminopropyl)-2-(p-fluorophenyl)-4,5,6,7,8,9-hexahydrocycloocta[b]pyrrole oxalate]
- activation at 10 µM (isolated rabbit atrium): 139%

Compound: CN(C)CCCn1c(-c2ccccc2)cc2c1CCC2.Cl [Example 35, 1-(3-dimethylaminopropyl)-2-phenyl-1,4,5,6-tetrahydrocyclopenta[b]pyrrole hydrochloride]
- activation at 20 µM (isolated rabbit atrium): 233%
- minimal effective dose (central nervous system): 50 mg/kg

Compound: CN(C)CCCn1c(-c2ccc(N)cc2)cc2c1CCCCCC2 [1-(3-dimethylaminopropyl)-2-(p-aminophenyl)-4,5,6,7,8,9-hexahydrocycloocta[b]pyrrole]
- inhibition in vivo at 200 mg/kg [1]: 57%

Compound: CN(C)CCCn1c(-c2ccc([N+](=O)[O-])cc2)cc2c1CCCCCC2 [Example 58, 1-(3-dimethylaminopropyl)-2-(p-nitrophenyl)-4,5,6,7,8,9-hexahydrocycloocta[b]-pyrrole hydrochloride]
- activation at 10 µM (isolated rabbit atrium): 125%

Compound: CN(C)CCCn1c(-c2ccccc2)cc2c1CCc1ccccc1-2 [Example 31, hydrochloride]
- inhibition in vivo at 200 mg/kg [1]: 56%
- minimal effective dose (central nervous system): 20 mg/kg
- decrease in systolic blood pressure [2]: 30 mm Hg

Compound: CNCCn1c(-c2ccccc2)cc2c1CCCCC2.Cl [Example 36, 1-(2-methylaminoethyl)-2-phenyl-1,4,5,6,7,8-hexahydrocyclohepta[b]pyrrole hydrochloride]
- activation at 1 µM (isolated rabbit atrium): 150%
- minimal effective dose (central nervous system): 50 mg/kg

Compound: CC(C)N(CCn1c(-c2ccc(O)cc2)cc2c1CCCC2)C(C)C [Example 23, 1-(2-diisopropylaminoethyl)-2-(p-hydroxyphenyl)-4,5,6,7-tetrahydroindole]
- inhibition in vivo at 200 mg/kg [1]: 44%

Compound: CC(CN(C)C)n1c(-c2ccccc2)cc2c1CCCCC2 (stereo not drawn) [Example 38, 1-(1-methyl-2-dimethylaminoethyl)-2-phenyl-1,4,5,6,7,8-hexahydrocyclohepta[b]pyrrole . oxalate]
- inhibition in vivo at 200 mg/kg [1]: 58%
- minimal effective dose (central nervous system): 6 mg/kg

Compound: CNCCn1c(-c2cccc(C(F)(F)F)c2)cc2c1CCCC2 [Example 14]
- activation at 20 µM (isolated rabbit atrium): 200%
- minimal effective dose (central nervous system): 25 mg/kg

Compound: CN(C)CCn1c(-c2ccccc2)cc2c1CCCCC2 [Example 37, 1-(2-dimethylaminoethyl)-2-phenyl-1,4,5,6,7,8-hexahydrocyclohepta[b]pyrrole . HCl]
- decrease in systolic blood pressure [2]: 45 mm Hg

Compound: CN(C)CCCn1c(-c2ccccc2)cc2c1-c1ccccc1CC2.Cl [Example 30, 1-(3-dimethylaminopropyl)-2-phenyl-4,5-dihydrobenz[g]indole hydrochloride]
- decrease in systolic blood pressure [2]: 24 mm Hg

Compound: CN(C)CCCn1c(-c2ccc(Br)cc2)cc2c1CCCC2 [Example 12, 2-(p-bromophenyl)-1-(3-dimethylaminopropyl)-4,5,6,7-tetrahydroindole hydrochloride]
- activation at 1 µM (isolated rabbit atrium): 150%
